Measured values reported in paper PMC4138991, “Building a Better Dynasore: The Dyngo Compounds Potently Inhibit Dynamin and Endocytosis” (Traffic (Copenhagen, Denmark), 2013).

How the values were obtained:
cultured CGNs [1] = assay: SV turnover by FM1-43 loading/unloading in cultured cerebellar granule neurons; type: cell-based, rat; details: 30 μM, 15 min preincubation
Method: (§1) Granule neuron cultures were prepared from the cerebella of 7‐day‐old rat pups as previously described 57. In all experiments, neurons were used between 8 and 10 days in vitro.
Neuronal cultures were removed from culture medium and left for 10 min in incubation medium [170 mM NaCl, 3.5 mM KCl, 0.4 mM KH2PO4, 20 mM TES (N‐tris[hydroxy‐methyl]‐methyl‐2‐aminoethane‐sulfonic acid), 5 mM NaHCO3, 5 mM glucose, 1.2 mM Na2SO4, 1.2 mM MgCl2 and 1.3 mM CaCl2, pH 7.4]. Cultures were then mounted in a Warner imaging chamber (RC‐21BRFS). Invaginating membrane was loaded with FM1‐43 (10 μM) by evoking SV turnover with a brief train of action potentials (80 Hz for 10 seconds, 100 mA and 1‐millisecond pulse width, delivered using platinum wires embedded in the imaging chamber). Dye kept present for 1 min after stimulation to ensure all retrieving membrane was labeled (S1 loading). After a 10‐min rest period, accumulated dye was unloaded from nerve terminals using two consecutive maximal stimuli with incubation media supplemented with 50 mM KCl (50 mM NaCl removed to maintain osmolarity). The fluorescence decrease due to dye loss provides an estimate of the total number of synaptic vesicles turned over during stimulation (S1). After a 20‐min rest period the S1 protocol was repeated (S2 loading and unloading). […]

[2] = molecular target: native sheep brain dynamin I (Ovis aries, UniProt A0ACI6PDC7); assay: PS liposome-stimulated (helical) dynamin I GTPase assay (Malachite Green); type: biochemical; details: GTP 50–250 μM, 4a 0.5–6 μM, 17 nM dynamin I, Lineweaver–Burke
Sequence of native sheep brain dynamin I (A0ACI6PDC7 entry or part of it): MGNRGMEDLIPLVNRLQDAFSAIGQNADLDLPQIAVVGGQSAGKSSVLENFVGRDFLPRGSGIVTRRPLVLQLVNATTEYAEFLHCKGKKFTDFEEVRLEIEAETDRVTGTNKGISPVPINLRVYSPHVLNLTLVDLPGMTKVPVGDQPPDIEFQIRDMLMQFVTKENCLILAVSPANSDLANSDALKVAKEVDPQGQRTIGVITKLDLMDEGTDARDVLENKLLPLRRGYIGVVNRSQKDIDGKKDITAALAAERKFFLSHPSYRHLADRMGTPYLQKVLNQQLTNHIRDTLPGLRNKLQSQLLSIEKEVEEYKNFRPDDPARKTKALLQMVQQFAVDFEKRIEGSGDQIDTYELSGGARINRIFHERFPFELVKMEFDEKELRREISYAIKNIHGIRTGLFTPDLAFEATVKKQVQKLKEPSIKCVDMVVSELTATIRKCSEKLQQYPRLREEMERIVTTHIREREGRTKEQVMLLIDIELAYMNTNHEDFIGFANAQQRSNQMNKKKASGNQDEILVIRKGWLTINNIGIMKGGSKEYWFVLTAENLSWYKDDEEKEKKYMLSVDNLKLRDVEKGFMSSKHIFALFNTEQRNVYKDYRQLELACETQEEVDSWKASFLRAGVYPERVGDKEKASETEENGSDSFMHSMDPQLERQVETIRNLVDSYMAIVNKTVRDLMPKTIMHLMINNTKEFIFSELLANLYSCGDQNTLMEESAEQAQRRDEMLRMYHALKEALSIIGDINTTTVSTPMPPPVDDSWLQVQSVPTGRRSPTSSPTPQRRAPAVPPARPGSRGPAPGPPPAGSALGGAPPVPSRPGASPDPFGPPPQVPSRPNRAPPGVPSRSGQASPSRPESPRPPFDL
Text: Recombinant dynamin I was used only for the data in Table 2. The dynamin antibodies were from: Dynamin I—in‐house YF2 antibodies, raised in rabbits against two different synthetic peptides: dynamin I 629‐647 ([…]) and dynamin I 765–778 ([…]), used at 1/2000 dilution, as previously described 53; Dynamin II—Santa Cruz (C‐18, sc‐6400, used at 1/1000) and Dynamin III—Santa Cruz (P‐13, sc‐69472, used at 1/500 dilution).
The Malachite Green colorimetric GTPase assay was as described 10. Dynamin I activity was measured in its SAI activity state or was stimulated by three different methods. As each stimulus activates dynamin to different extents, each assay required different dynamin concentrations. First, maximal dynamin activity was stimulated by sonicated PS liposomes 10. […] Finally, dynamin (500 nM) SAI activity was measured using high concentrations of dynamin, which promote its cooperative self‐assembly into rings (but not helices) 26. […] After the Vmax and Km values were determined, the data were transformed using the Lineweaver–Burke equation, 1/v = 1/Vmax + (Km/Vmax)(1/[S]).

cultured CGNs [3] = assay: HRP labeling of endocytosis pathways (electron microscopy) in CGNs; type: cell-based, rat; details: 30 μM, 15 min, 80 Hz 10 s
Method: as §1
Granule neurons were processed for electron microscopy as previously described 40. Briefly, cells were transferred to incubation medium for 10 min and subsequently incubated with or without 30 μM 4a for 15 min. Cultures were next stimulated with 800 action potentials (80 Hz) in incubation medium supplemented with HRP (10 mg/mL) in the presence or absence of 4a. Cells were fixed in a 2% solution of glutaraldehyde in phosphate‐buffered saline for 30 min at 37°C directly after stimulation. After washing with 100 mM Tris (pH 7.4) cells were exposed to 0.1% diaminobenzidine and 0.2% H2O2 in 100 mM Tris. On development of color, cells were washed with 100 mM Tris and subsequently stained with 1% osmium tetroxide for 30 min. After washing, cells were post‐stained with 2% uranyl acetate for 15 min, then dehydrated using ethanol series and polypropylene oxide and embedded using Durcupan. Samples were sectioned, mounted on grids and viewed using a FEI Tecnai 12 transmission electron microscope. Intracellular structures that were less than 100 nm in diameter were arbitrarily designated to be synaptic vesicles, whereas larger structures were designated to be endosomes.

[4] = molecular target: grb2-stimulated dynamin I (from brain) (Ovis aries, UniProt A0ACI6PDC7); assay: grb2-stimulated (ring) dynamin I GTPase assay; type: biochemical, sheep
Sequence of grb2-stimulated dynamin I (from brain) (A0ACI6PDC7 entry or part of it): as above
Method: The Malachite Green colorimetric GTPase assay was as described 10. Dynamin I activity was measured in its SAI activity state or was stimulated by three different methods. As each stimulus activates dynamin to different extents, each assay required different dynamin concentrations. First, maximal dynamin activity was stimulated by sonicated PS liposomes 10. Purified dynamin I (10–20 nM, diluted in: 6 mM Tris–HCl, 20 mM NaCl and 0.01% Tween 80, pH 7.4) was incubated in 96‐well plates in GTPase buffer (5 mM Tris–HCl, 10 mM NaCl, 2 mM Mg^2+, 0.05% Tween 80, pH 7.4, 1 µg/mL leupeptin and 0.1 mM PMSF) and GTP 0.3 mM in the presence of test compound for 30 min at 37°C in a final assay volume of 150 μL. Reactions were terminated with 10 μL of 0.5 M ethylenediaminetetraacetic acid (EDTA) pH 7.4 and Malachite Green solution (40 μL: 2% w/v ammonium molybdate tetrahydrate, 0.15% w/v malachite green and 4 M HCl) was added for 5 min. Second, dynamin (20 nM) was stimulated by 10 µg/mL of taxol‐stabilized preformed bovine brain microtubules (Cytoskeleton, Inc) using the same protocol. […] Finally, dynamin (500 nM) SAI activity was measured using high concentrations of dynamin, which promote its cooperative self‐assembly into rings (but not helices) 26. […] After the Vmax and Km values were determined, the data were transformed using the Lineweaver–Burke equation, 1/v = 1/Vmax + (Km/Vmax)(1/[S]).

Row | Compound | FM1-43 unloading (SV exocytosis) (cultured CGNs [1]) | kinetics of inhibition with respect to GTP [2] | number of HRP-labeled endosomes (ADBE) (cultured CGNs [3]) | number of HRP-labeled synaptic vesicles (neuronal CME) (cultured CGNs [3]) | block of grb2-SH3 stimulated ring dynamin activity ([4]; presence of Tween-80) | fold reduced activity against grb2-stimulated ring dynamin versus PS-stimulated helical dynamin ([4]; without Tween-80)
1 | O=C(N/N=C/c1cc(O)c(O)cc1O)c1cc2ccccc2cc1O [4a, (E)-3-Hydroxy-N'-(2,4,5-trihydroxybenzylidene) -2-naphthohydrazide] | did not have a significant acute effect | non‐competitive inhibitor | caused a decrease in the number | significant reduction in the number of labeled synaptic vesicles |  | 
2 | O=C(N/N=C/c1ccc(O)c(O)c1)c1cc2ccccc2cc1O [Dynasore, (E)-N'-(3,4-Dihydroxybenzylidene)-3-hydroxy-2-naphthohydrazide] |  |  |  |  | did not block | threefold less potent
